{
  "source": "patent US20050086714A1",
  "about": "“Eucalyptus transformation method” (AGRIGENESIS BIOSCIENCES LIMITED, priority 2003, published 2005)",
  "type_in_all_cases": "cell-based, Eucalyptus grandis",
  "key": {"[1]": {"system": "co-cultivated internode explants of Eucalyptus clone Eg8", "test": "Effect of kanamycin level on shoot regeneration from co-cultivated explants, Exp II", "experimental": "(§1) Internode segment explants were prepared as described in Example 2 above. The explants were placed on a co-cultivation medium in a sideways orientation. The co-cultivation medium was usually EuCo19 (Table 2), although a similar medium could be employed. EuCo19 was based on the regeneration medium EuCo14, supplemented with 100 μM of acetosyringone. In addition, EuCo19 was solidified with gelrite while EuCo14 was solidified with agar. After 50 internode explants were placed on one medium plate, 1-2 μl of Agrobacterium cells were applied to each internode. The plate was then sealed and incubated at 22° C. under low intensity light (300 lux) for three days.\n(§2) After 3 days of co-cultivation, the explants were transferred to regeneration/selection medium containing 20-50 mg/l kanamycin and 250 mg/l timentin. In a number of experiments, 10-30 explants from each treatment were taken from the selection medium at day 4 on the medium and tested for transient transgene expression using a GUS staining procedure described in Example 3.6 below.\n(§3) In a follow-up experiment, 425 internode explants of the E. grandis clone C101 were co-cultivated with LBA4404 containing the binary vector pART69 and then transferred to selection media containing five different concentrations of kanamycin. The regeneration efficiencies were 100%, 17%, 8%, 3% and 1% from kanamycin concentrations of 0, 20, 30, 40 and 50 mg/l, respectively."}, "[2]": {"system": "wild type internode explants of E. grandis clone 8 or C101", "test": "Effect of kanamycin level on shoot regeneration from wild type explants", "experimental": "A range of kanamycin concentrations (0, 5, 10, 15, 20, 30, 40 and 50 mg/l) were then tested in four experiments to determine the minimum level of kanamycin for inhibiting regeneration from the wild type internode explants (Table 5).\nFifty internode explants of the E. grandis clone 8 or C101 were cultured on each of the eight media consisting of EuCo14 supplemented with kanamycin at eight different concentrations, namely 0, 5, 10, 15, 20, 30, 40 and 50 mg/l. […] An excessive level of kanamycin kills non-transformed cells in the explant early in the selection stages. This will reduce the regeneration from transformed cells which would be surrounded by these dead non-transformed cells."}, "[3]": {"system": "internode explants of Eucalyptus clone C101 co-cultivated with LBA4404 containing pART69", "test": "Effect of kanamycin level on shoot regeneration from co-cultivated explants, Exp I", "experimental": "as §1, §2, §3"}},
  "data": [
    {"smiles": "NC[C@H]1O[C@H](O[C@H]2[C@H](O)[C@@H](O[C@H]3O[C@H](CO)[C@@H](O)[C@H](N)[C@H]3O)[C@H](N)C[C@@H]2N)[C@H](O)[C@@H](O)[C@@H]1O", "note": "[Kanamycin, kanamycin]", "values": [
      {"measurement": "Regeneration Rate", "setting": "[1]; kanamycin 20 mg/l", "value": 29, "unit": "%"},
      {"measurement": "Regeneration Rate", "setting": "[1]; kanamycin 30 mg/l", "value": 12, "unit": "%"},
      {"measurement": "Regeneration Rate", "setting": "[1]; kanamycin 40 mg/l", "value": 6, "unit": "%"},
      {"measurement": "Regeneration Rate", "setting": "[1]; kanamycin 50 mg/l", "value": 4, "unit": "%"},
      {"measurement": "Regeneration Rate", "setting": "[2]; kanamycin 5 mg/L in EuCo14, Exp 3", "value": 2, "unit": "%"},
      {"measurement": "Regeneration Rate", "setting": "[2]; kanamycin 5 mg/L in EuCo14, Exp 4", "value": 10, "unit": "%"},
      {"measurement": "Regeneration Rate", "setting": "[2]; kanamycin 10 mg/L in EuCo14, Exp 3", "value": 0, "unit": "%"},
      {"measurement": "Regeneration Rate", "setting": "[2]; kanamycin 10 mg/L in EuCo14, Exp 4", "value": 0, "unit": "%"},
      {"measurement": "Regeneration Rate", "setting": "[2]; kanamycin 15 mg/L in EuCo14, Exp 3", "value": 0, "unit": "%"},
      {"measurement": "Regeneration Rate", "setting": "[2]; kanamycin 15 mg/L in EuCo14, Exp 4", "value": 0, "unit": "%"},
      {"measurement": "Regeneration Rate", "setting": "[2]; kanamycin 20 mg/L in EuCo14, Exp 1", "value": 0, "unit": "%"},
      {"measurement": "Regeneration Rate", "setting": "[2]; kanamycin 20 mg/L in EuCo14, Exp 2", "value": 4, "unit": "%"},
      {"measurement": "Regeneration Rate", "setting": "[2]; kanamycin 30 mg/L in EuCo14, Exp 1", "value": 0, "unit": "%"},
      {"measurement": "Regeneration Rate", "setting": "[2]; kanamycin 30 mg/L in EuCo14, Exp 2", "value": 0, "unit": "%"},
      {"measurement": "Regeneration Rate", "setting": "[2]; kanamycin 40 mg/L in EuCo14, Exp 1", "value": 0, "unit": "%"},
      {"measurement": "Regeneration Rate", "setting": "[2]; kanamycin 40 mg/L in EuCo14, Exp 2", "value": 0, "unit": "%"},
      {"measurement": "Regeneration Rate", "setting": "[2]; kanamycin 50 mg/L in EuCo14, Exp 1", "value": 0, "unit": "%"},
      {"measurement": "Regeneration Rate", "setting": "[2]; kanamycin 50 mg/L in EuCo14, Exp 2", "value": 0, "unit": "%"},
      {"measurement": "Regeneration Rate", "setting": "[3]; kanamycin 20 mg/l", "value": 17, "unit": "%"},
      {"measurement": "Regeneration Rate", "setting": "[3]; kanamycin 20 mg/l, listed as kanamycin", "value": 17, "unit": "%"},
      {"measurement": "Regeneration Rate", "setting": "[3]; kanamycin 30 mg/l", "value": 8, "unit": "%"},
      {"measurement": "Regeneration Rate", "setting": "[3]; kanamycin 30 mg/l, listed as kanamycin", "value": 8, "unit": "%"},
      {"measurement": "Regeneration Rate", "setting": "[3]; kanamycin 40 mg/l", "value": 3, "unit": "%"},
      {"measurement": "Regeneration Rate", "setting": "[3]; kanamycin 40 mg/l, listed as kanamycin", "value": 3, "unit": "%"},
      {"measurement": "Regeneration Rate", "setting": "[3]; kanamycin 50 mg/l", "value": 1, "unit": "%"},
      {"measurement": "Regeneration Rate", "setting": "[3]; kanamycin 50 mg/l, listed as kanamycin", "value": 1, "unit": "%"}
    ]}
  ]
}
